Measured values published in patent US9416115B2, “Fused heterocyclic compounds as ion channel modulators” (Gilead Sciences, Inc., priority 2013, dated 2016).
Read-outs that look alike come from different tables or passages of the source.

Assays:
[1] = biological target: wild-type human cardiac sodium channel, hNav1.5 (Homo sapiens, UniProt Q14524); experiment: Peak INa screening assay (tonic block and use-dependent block); assay type: cell-based
Procedure, shortened: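 HEK293 cells stably expressing hNav1.5 (no beta subunits), automated whole-cell patch clamp at 23-25° C, 40 mM Na+ bath (choline substitution), pH 7.35. Compound at 1 or 3 μM, added twice then 200 s equilibration; tonic block by steps to −20 mV from −100 mV at 0.1 Hz, use-dependent block at pulse 50 of a 3 Hz train, rundown-corrected versus compound-free.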

[2] = biological target: hNav1.1 (SCN1A) (Homo sapiens, UniProt P35498); experiment: Use-dependent inhibition of the CNS Nav1.1 sodium channel; assay type: cell-based; conditions: use-dependent block, 25 Hz, pulse 20, read-out: Nav1.1 UDB 25 Hz 10 uM
Procedure, shortened: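 HEK-293 cells stably expressing WT hNav1.1, automated whole-cell patch clamp at 23-25 °C with CsF-based internal and NaCl external solutions, pH 7.35. Compound applied twice, 200 s equilibration; block measured at pulse 20 of a 25 Hz train (0 mV, 20 ms) from −120 mV, as mean % inhibition versus compound-free.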

[3] = tonic block of Peak INa, 0.1 Hz, holding -100 mV, read-out: Peak TB 3 uM
[4] = use-dependent block of Peak INa, 3 Hz, pulse 50, read-out: Peak UDB 3 Hz 3 uM

Chain of wild-type human cardiac sodium channel, hNav1.5 (Q14524 whole entry): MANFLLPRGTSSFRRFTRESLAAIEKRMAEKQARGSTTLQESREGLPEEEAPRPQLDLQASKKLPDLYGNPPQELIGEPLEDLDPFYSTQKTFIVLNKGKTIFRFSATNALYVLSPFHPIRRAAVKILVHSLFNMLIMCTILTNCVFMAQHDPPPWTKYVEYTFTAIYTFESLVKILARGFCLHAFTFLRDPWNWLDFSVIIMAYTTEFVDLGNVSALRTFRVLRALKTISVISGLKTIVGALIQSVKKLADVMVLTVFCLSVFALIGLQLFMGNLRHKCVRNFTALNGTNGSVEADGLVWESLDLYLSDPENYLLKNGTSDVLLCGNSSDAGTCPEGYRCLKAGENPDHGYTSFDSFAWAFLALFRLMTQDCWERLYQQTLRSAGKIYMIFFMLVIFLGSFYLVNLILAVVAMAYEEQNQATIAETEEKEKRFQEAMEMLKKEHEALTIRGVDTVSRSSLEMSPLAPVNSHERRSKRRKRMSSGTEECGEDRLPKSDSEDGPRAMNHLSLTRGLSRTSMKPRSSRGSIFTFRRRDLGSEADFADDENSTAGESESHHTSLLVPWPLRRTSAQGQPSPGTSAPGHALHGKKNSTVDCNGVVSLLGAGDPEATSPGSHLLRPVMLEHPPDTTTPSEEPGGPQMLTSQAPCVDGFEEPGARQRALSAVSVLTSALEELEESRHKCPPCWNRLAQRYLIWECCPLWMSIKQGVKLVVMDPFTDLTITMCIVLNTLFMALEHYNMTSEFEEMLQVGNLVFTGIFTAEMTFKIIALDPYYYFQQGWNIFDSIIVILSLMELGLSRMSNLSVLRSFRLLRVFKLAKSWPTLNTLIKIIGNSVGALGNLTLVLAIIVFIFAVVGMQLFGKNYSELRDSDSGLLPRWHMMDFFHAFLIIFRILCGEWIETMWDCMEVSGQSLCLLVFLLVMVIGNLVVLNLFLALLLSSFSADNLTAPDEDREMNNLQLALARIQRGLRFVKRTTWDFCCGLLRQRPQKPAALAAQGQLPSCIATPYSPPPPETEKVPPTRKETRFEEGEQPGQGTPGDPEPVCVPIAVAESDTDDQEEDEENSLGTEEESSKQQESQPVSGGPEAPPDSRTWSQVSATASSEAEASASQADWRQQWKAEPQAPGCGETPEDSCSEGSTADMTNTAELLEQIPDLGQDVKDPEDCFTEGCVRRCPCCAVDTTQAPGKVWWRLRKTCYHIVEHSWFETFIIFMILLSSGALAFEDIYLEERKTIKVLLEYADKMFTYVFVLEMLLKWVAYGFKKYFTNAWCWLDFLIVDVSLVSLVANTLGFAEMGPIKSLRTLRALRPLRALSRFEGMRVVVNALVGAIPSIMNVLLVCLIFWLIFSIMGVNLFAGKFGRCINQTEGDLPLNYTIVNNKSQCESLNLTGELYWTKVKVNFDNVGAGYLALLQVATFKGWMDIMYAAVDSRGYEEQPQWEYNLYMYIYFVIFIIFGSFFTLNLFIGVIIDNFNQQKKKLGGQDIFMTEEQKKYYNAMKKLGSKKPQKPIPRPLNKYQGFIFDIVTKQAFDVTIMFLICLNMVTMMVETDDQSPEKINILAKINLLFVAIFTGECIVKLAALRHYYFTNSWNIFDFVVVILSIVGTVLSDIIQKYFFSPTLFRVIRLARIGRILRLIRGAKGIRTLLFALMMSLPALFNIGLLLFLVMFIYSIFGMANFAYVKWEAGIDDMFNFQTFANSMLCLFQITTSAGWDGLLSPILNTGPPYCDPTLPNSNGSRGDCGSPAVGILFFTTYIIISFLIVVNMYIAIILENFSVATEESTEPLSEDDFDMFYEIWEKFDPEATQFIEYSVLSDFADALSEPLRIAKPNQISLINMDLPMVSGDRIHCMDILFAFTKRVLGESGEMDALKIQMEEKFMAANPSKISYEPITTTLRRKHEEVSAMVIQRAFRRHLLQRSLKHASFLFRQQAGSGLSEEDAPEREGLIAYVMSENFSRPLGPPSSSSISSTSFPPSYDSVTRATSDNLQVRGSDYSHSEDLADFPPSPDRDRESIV

SMILES	inhibition at 3 µM [1, 3] [%]	inhibition at 3 µM [1, 4] [%]	inhibition at 10 µM [2] [%]
O=C1NCC[C@H]1Oc1noc2ccc(-c3ccc(OC(F)(F)F)cc3)cc12 [Example 72, (R)-3-((5-(4-(trifluoromethoxy)phenyl)benzo[d]isoxazol-3-yl)oxy)pyrrolidin-2-one]	17.7	10.8	78.1
Cc1cnc(COc2noc3ccc(-c4ccc(OC(F)(F)F)cc4)cc23)cn1 [Example 73, 3-((5-methylpyrazin-2-yl)methoxy)-5-(4-(trifluoromethoxy)phenyl)benzo[d]isoxazole]	41.9	< 5	10.1
Cc1cc(-c2ccc(OC(F)(F)F)cc2)cc2c(OCc3nnc(C4CC4)o3)noc12 [Example 105, 3-((5-cyclopropyl-1,3,4-oxadiazol-2-yl)methoxy)-7-methyl-5-(4-(trifluoromethoxy)phenyl)benzo[d]isoxazole]	9.4	27.8	75.7
Nc1noc2ccc(-c3ccc(OC(F)(F)F)cc3)cc12 [Example 147, 5-(4-(trifluoromethoxy)phenyl)benzo[d]isoxazol-3-amine]	26	3	32
FC(F)(F)Oc1ccc(-c2ccc3onc(OCc4ncco4)c3c2)cc1 [Example 53, 3-(oxazol-2-ylmethoxy)-5-(4-(trifluoromethoxy)phenyl)benzo[d]isoxazole]	43.4	< 5	< 5
O=C1OCCN1CCOc1noc2ccc(-c3ccc(OC(F)(F)F)cc3)cc12 [Example 75, 3-(2-((5-(4-(trifluoromethoxy)phenyl)benzo[d]isoxazol-3-yl)oxy)ethyl)oxazolidin-2-one]	36.9	< 5	34.2
FC(F)(F)Oc1ccc(-c2ccc3onc(OCc4cnccn4)c3c2)cc1 [Example 151, 3-(pyrazin-2-ylmethoxy)-5-(4-(trifluoromethoxy)phenyl)benzo[d]isoxazole]	43.3	< 5	20
Cc1nnc(COc2noc3ccc(-c4ccc(OC(F)(F)F)cc4)cc23)o1 [Example 99, 3-((5-methyl-1,3,4-oxadiazol-2-yl)methoxy)-5-(4-(trifluoromethoxy)phenyl)benzo[d]isoxazole]	55.6	< 5	30
FC(F)(F)Oc1ccc(-c2ccc3onc(-n4cncn4)c3c2)cc1 [Example 136, 3-(1H-1,2,4-triazol-1-yl)-5-(4-(trifluoromethoxy)phenyl)benzo[d]isoxazole]	10.5	< 5	< 5
COCCOc1noc2ccc(-c3ccc(OC(F)(F)F)cc3)cc12 [Example 60, 3-(2-methoxyethoxy)-5-(4-(trifluoromethoxy)phenyl)benzo[d]isoxazole]	30.6	< 5	27
Cc1cc2onc(OCc3ncccn3)c2cc1-c1ccc(C(F)(F)F)cc1F [Example 28, 5-(2-fluoro-4-(trifluoromethyl)phenyl)-6-methyl-3-(pyrimidin-2-ylmethoxy)benzo[d]isoxazole]	21.6	< 5	< 5
CC(C)NC(=O)COc1noc2ccc(-c3ccc(OC(F)(F)F)cc3)cc12 [Example 122, N-isopropyl-2-((5-(4-(trifluoromethoxy)phenyl)benzo[d]isoxazol-3-yl)oxy)acetamide]	10.7	< 5	< 5
FC(F)(F)Oc1ccc(-c2ccc3onc(OCC4CCO4)c3c2)cc1 (stereo not drawn) [Example 42, 3-(oxetan-2-ylmethoxy)-5-(4-(trifluoromethoxy)phenyl)benzo[d]isoxazole]	27.6	< 5	< 5
FC(F)(F)Oc1ccc(-c2ccc3onc(-n4ccnc4)c3c2)cc1 [Example 132, 3-(1H-imidazol-1-yl)-5-(4-(trifluoromethoxy)phenyl)benzo[d]isoxazole]	20.6	5.1	< 5
COc1ccnc(CNc2noc3ccc(-c4ccc(OC(F)(F)F)cc4)cc23)n1 [Example 149, N-((4-methoxypyrimidin-2-yl)methyl)-5-(4-(trifluoromethoxy)phenyl)benzo[d]isoxazol-3-amine]	86.4	< 5	50
O=C1CCCN1CCOc1noc2ccc(-c3ccc(OC(F)(F)F)cc3)cc12 [Example 59, 1-(2-((5-(4-(trifluoromethoxy)phenyl)benzo[d]isoxazol-3-yl)oxy)ethyl)pyrrolidin-2-one]	19	< 5	46.9
CC(C)(C)OC(=O)COc1noc2ccc(-c3ccc(OC(F)(F)F)cc3)cc12 [Example 157, tert-butyl 2-((5-(4-(trifluoromethoxy)phenyl)benzo[d]isoxazol-3-yl)oxy)acetate]	15.6	< 5	< 5
FC(F)(F)Oc1ccc(-c2ccc3onc(NCC4CC4)c3c2)cc1 [Example 128, N-(cyclopropylmethyl)-5-(4-(trifluoromethoxy)phenyl)benzo[d]isoxazol-3-amine]	17.3	< 5	< 5
CN1CCC[C@H]1COc1noc2ccc(-c3ccc(OC(F)(F)F)cc3)cc12 [Example 71, (S)-3-((1-methylpyrrolidin-2-yl)methoxy)-5-(4-(trifluoromethoxy)phenyl)benzo[d]isoxazole]	61.1	44.4	93.8
Cc1nnc(COc2noc3c(F)cc(-c4ccc(OC(F)(F)F)cc4)cc23)o1 [Example 155, 7-fluoro-3-((5-methyl-1,3,4-oxadiazol-2-yl)methoxy)-5-(4-(trifluoromethoxy)phenyl)benzo[d]isoxazole]	24.8	8.4	63.5
Fc1cc(-c2ccc3onc(OCc4ncccn4)c3c2)ccc1Cl [Example 8, 5-(4-chloro-3-fluorophenyl)-3-(pyrimidin-2-ylmethoxy)benzo[d]isoxazole]	13.1	< 5	< 5
FC(F)(F)Oc1ccc(-c2ccc3onc(-n4cnc(Cl)c4)c3c2)cc1 [Example 140, 3-(4-chloro-1H-imidazol-1-yl)-5-(4-(trifluoromethoxy)phenyl)benzo[d]isoxazole]	8.5	< 5	< 5
COc1cc(OC(F)(F)F)ccc1-c1ccc2onc(OCc3ncccn3)c2c1 [Example 4, 5-(2-methoxy-4-(trifluoromethoxy)phenyl)-3-(pyrimidin-2-ylmethoxy)benzo[d]isoxazole]	38	17.9	14.2
COc1cc2onc(OCc3ncccn3)c2cc1-c1ccc(Cl)c(F)c1 [Example 13, 5-(4-chloro-3-fluorophenyl)-6-methoxy-3-(pyrimidin-2-ylmethoxy)benzo[d]isoxazole]	10.7	< 5	30.8
